Here are results for 9 compounds from patent US6384058B1, “2,4,6-trisubstituted pryridines with estrogenic activity and methods for the solid phase synthesis thereof” (American Home Products Corporation, priority 1997, dated 2002).

For one series, the target named is T1, human estrogen receptor (Homo sapiens, UniProt P03372).
T1 construct: expressed in transfected cells; host or cells: Chinese Hamster Ovary (CHO) cells, stably transfected
T1 sequence (P03372 1-595): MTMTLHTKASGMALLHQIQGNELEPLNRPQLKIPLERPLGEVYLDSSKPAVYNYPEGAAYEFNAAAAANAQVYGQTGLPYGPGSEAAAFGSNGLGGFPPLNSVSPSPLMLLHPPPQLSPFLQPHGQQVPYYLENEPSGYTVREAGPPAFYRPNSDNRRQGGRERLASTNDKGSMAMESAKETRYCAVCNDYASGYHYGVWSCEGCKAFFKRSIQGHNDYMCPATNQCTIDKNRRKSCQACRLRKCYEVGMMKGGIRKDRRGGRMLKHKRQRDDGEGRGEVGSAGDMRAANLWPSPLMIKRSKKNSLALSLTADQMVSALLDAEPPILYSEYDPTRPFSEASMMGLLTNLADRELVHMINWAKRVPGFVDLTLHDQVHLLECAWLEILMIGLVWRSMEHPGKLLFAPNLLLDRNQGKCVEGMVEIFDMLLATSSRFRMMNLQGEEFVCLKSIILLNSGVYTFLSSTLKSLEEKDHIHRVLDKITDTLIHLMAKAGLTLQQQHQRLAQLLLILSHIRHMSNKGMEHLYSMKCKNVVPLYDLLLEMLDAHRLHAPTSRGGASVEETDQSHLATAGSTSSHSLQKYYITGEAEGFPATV
The experiment in a line: Estrogen Receptor Assay: 2×VIT ERE Transfection Assay (luciferase reporter in CHO cells). The series is classed as cell-based. Conditions: 1 μM compound alone, 24 h, CHO cells stably transfected with human estrogen receptor, luciferase normalised to B-galactosidase, n=8. On the procedure:
Enhancement of luciferase gene expression in this model is dependent upon estrogen receptor (ER) interaction with a vitellogenin gene estrogen responsive element (ERE) capable of enhancing basal promoter activity. This is a sensitive and rapid methodology to assess estrogenic/antiestrogenic potency of compounds.
48 h prior to treatment the growth medium is replaced with DMEM lacking phenol red+10% dextran coated charcoal stripped FBS (treatment medium). Cells are plated at a density of 5000 cells/well in 96-well plates containing 200 μL of medium/well.
Calcium Phosphate Transfection: Reporter DNA (Promega plasmid pGL2 containing two tandem copies of the vitellogenin ERE in front of the minimal thymidine kinase promoter driving the luciferase gene) is combined with the B-galactosidase expression plasmid pCH110 (Pharmacia) and carrier DNA (pTZ18U) in the following ratio: 10 μg of reporter DNA, 5 μg of pCH110 DNA, 5 μg of pTZ18U, and 20 μg of DNA/1 mL of transfection solution. […] 20 μL of this mixture is added to each well of cells and remains on the cells for 16 h. […] Each treatment condition is performed on 8 wells (n=8) which are incubated for 24 h prior to luciferase assay.
Luciferase Assay: After 24 h exposure to compounds, the media is removed and each well is washed 2× with 125 μL of PBS lacking Mg++ and Ca++. After removing the PBS, 25 μL of Promega lysis buffer is added to each well and allowed to stand at room temperature for 15 min, followed by 15 min at −80 deg. C. and 15 min at 37 deg. C. 20 μL of lysate is tranferred to an opaque 96-well plate for luciferase activity evaluation and the remaining lysate (5 μL) is used for B-galactosidase activity evaluation (normalize transfection). The luciferan substrate (Promega) added is 100 μL aliquots to each well automatically by the luminometer and the light produced (relative light units) is read 10 seconds after addition. The data is logged and automatically sent to a JMP statistical program for analysis. A hard copy printout is also produced at the time of the assay.
B-galactosidase Assay: To the remaining 5 μL of lysate 45 μL of PBS is added. 50 μl of Promega B-galactosidase 2×assay buffer is added, mixed well and incubated at 37 deg. C. for 1 h. A plate containing a standard curve (0.1 to 1.5 milliunits in triplicate) is set up for each experimental run. The plates are analyzed on a Molecular Devices spectrophotometric plate reader at 410 nm. The optical densities for the unknowns are converted to milliunits of activity by mathematical extrapolation from the standard curve. Analysis of Results: The luciferase data is generated as relative light units (RLUs) accumulated during a 10 second measurement and is automatically transferred to a JMP (SAS Inc) file where background RLUs are subtracted. The B-galactosidase values are automatically imported into the file and these values are divided into the RLUs to normalize the data. The mean and standard deviation is determined from a n=8 for each treatment.
Background: A reporter such as luciferase makes a cellular process visible.

Molecules are shown by their SMILES.

As to `Oc1ccccc1-c1cc(-c2ccc(F)c(F)c2)cc(-c2ccc(Cl)cc2)n1` [Example 1, 2-[6-(4-Chloro-phenyl)-4-(3,4-difluoro-phenyl)-pyridin-2-yl]-phenol], the melting point (as a rule, the temperature, or range, at which the solid turns liquid) fell in the range of 146 to 148 °C. Also, the “Estrogenic activity at 1 μM (% of activity of 1 nM 17B-estradiol)” value on human estrogen receptor was 14%.

In turn, `Oc1ccccc1-c1cc(-c2ccc(F)c(F)c2)cc(-c2ccc3ccccc3c2)n1` [Example 2, 2-[4-(3,4-Difluoro-phenyl)-6-naphthalen-2-yl-pyridin-2-yl]-phenol] had a melting point of 165 to 167 °C.

`Oc1ccccc1-c1cc(-c2ccc(F)c(F)c2)cc(-c2ccco2)n1` [Example 3, 2-[4-(3,4-Difluoro-phenyl)-6-furan-2-yl-pyridin-2-yl]-phenol] gave a melting point of 147 to 148 °C. For the same compound, the “Estrogenic activity at 1 μM (% of activity of 1 nM 17B-estradiol)” value at human estrogen receptor worked out at 10%.

`Oc1ccccc1-c1cc(-c2ccc3c(c2)OCO3)cc(-c2ccc3ccccc3c2)n1` [Example 4, 2-(4-Benzo[1,3]dioxol-5-yl-6-naphthalen-2-yl-pyridin-2-yl)-phenol] had a melting point of 195 to 196 °C. At human estrogen receptor, the “Estrogenic activity at 1 μM (% of activity of 1 nM 17B-estradiol)” value stood at 22%.

In the case of `Oc1ccccc1-c1cc(-c2ccc3c(c2)OCO3)cc(-c2ccsc2)n1` [Example 5, 2-(4-Benzo[1,3]dioxol-5-yl-6-thiophen-3-yl-pyridin-2-yl)-phenol], the melting point lay within 120 to 121 °C.

Compound `Oc1ccc(F)cc1-c1cc(-c2ccc(-c3ccccc3)cc2)cc(-c2ccc3ccccc3c2)n1` [Example 6, 2-(4-Biphenyl-4-yl-6-naphthalen-2-yl-pyridin-2-yl)-4-fluoro-phenol] showed a melting point of 187 to 188 °C.

In the case of `Oc1ccc(F)cc1-c1cc(-c2ccc(-c3ccccc3)cc2)cc(-c2ccncc2)n1` [Example 7, 2-(4-Biphenyl-4-yl-[2,4′]bipyridinyl-6-yl)-4-fluoro-phenol], on human estrogen receptor, the “Estrogenic activity at 1 μM (% of activity of 1 nM 17B-estradiol)” value was 6%.

Compound `Oc1cccc(-c2cc(-c3ccc(-c4ccccc4)cc3)cc(-c3ccc4ccccc4c3)n2)c1` [Example 9, 3-(4-Biphenyl-4-yl-6-naphthalen-2-yl-pyridin-2-yl)-phenol] came in with a melting point of 174 to 175 °C.

As for `Oc1cccc(-c2cc(C3CCCCC3)cc(-c3ccco3)n2)c1` [Example 10, 3-(4-Cyclohexyl-6-furan-2-yl-pyridin-2-yl)-phenol], at human estrogen receptor, the “Estrogenic activity at 1 μM (% of activity of 1 nM 17B-estradiol)” value was 36%.
